# From patent US11826430B2, “Anti-cancer nuclear hormone receptor-targeting compounds” (Nuvation Bio Inc., priority 2019, dated 2023)
# Experiments:
# [1] = test system: 22RV1 cells; assay: Cell proliferation assay, CellTiter Glo; type: cell-based; conditions: Homo sapiens, 22Rv1, 72 h; cell growth inhibition, three days of treatment
# Description: (§1) a. […] IC50s were determined using 8 concentrations/compound. […] Ki=IC50/(1+[L]/Kd) c.
# (§2) Cells were plated at varying density in the respective growth medium in 96 well plates. 24 hr later, cells were treated, in triplicate or quadruplicate, with test articles prepared in a range of concentrations by series dilution of DMSO stock solutions in growth medium and incubated for three to seven days. The number of viable 22RV1 and HT-29 cells was measured using CellTiter Glo assay (CTG, Promega, Madison, WI) after three days of treatment. Cell viability data were plotted using GraphPad Prism (GraphPad Software, Inc., San Diego, CA). In addition, a nonlinear regression model with a sigmoidal dose response and variable slope within GraphPad Prism was used to calculate the IC50 value of individual test articles.
# [2] = test system: HT-29 cells; assay: Cell proliferation assay, CellTiter Glo; type: cell-based; conditions: Homo sapiens, HT-29, 72 h; cell growth inhibition, three days of treatment
# Description: as §1, §2
# [3] = biological target: AR in LNCaP cytosol (Homo sapiens (Human), UniProt P10275, T878A); assay: AR binding assay (3H-methyltrienolone displacement); conditions: read-out: AR IC50, 4° C. for 24 hours
# Description: (§3) RBC HotSpot Poly(ADP-ribose) Polymerases 1 (PARP1) and Poly(ADP-ribose) Polymerases 2 (PARP2) Assays: The assay was conducted at Reaction Biology Corporation (RBC; Malvern, PA). The assay principle is radioisotope-based filter binding assay where incorporation of radioisotope-labeled NAD^+ into the substrate captured on filter is detected after washout free NAD^+. Data were analyzed using Excel and GraphPad Prism software for IC50 curve fits. Each assay was conducted with PJ34 as a positive control. PARP1 assay: Human recombinant PARP1 at a final concentration of 2.5 nM was combined with histone H4 (20 μM) and test articles at various concentrations in reaction buffer (50 mM Tris-HCL, pH 8.0, 50 mM NaCl, 10 mM MgCl2, 1 mM DTT, 1% DMSO, and 20 μg/mL activated DNA). The solution was inoculated for 20 min at room temperature and the reaction initiated by adding [adenylate-^32P]-Nicotinamide Adenine Dinucleotide, ^32P-NAD^+ at a final concentration of 10 μM. After incubation for 2 hrs at room temperature, the reaction mixture was filtered and washed with 0.75% phosphoric acid for radioactivity detection. • ii. PARP2 assay: Human recombinant PARP2 at a final concentration of 2.5 nM was combined with histone H3 (20 μM) and test articles at various concentrations in reaction buffer (50 mM Tris-HCL, pH 8.0, 50 mM NaCl, 10 mM MgCl2, 1 mM DTT, 1% DMSO, and 20 μg/mL activated DNA). The solution was inoculated for 20 min at room temperature and the reaction was initiated by adding [adenylate-^32P]-Nicotinamide Adenine Dinucleotide, ^32P-NAD^+ at a final concentration of 10 μM. After incubation for 2 hrs at room temperature, the reaction mixture was filtered and washed with 0.75% phosphoric acid for radioactivity detection. b. AR binding assay: AR in LNCaP cytosol was used for determining the binding affinity of test articles and the reference compound—progesterone (Sigma, Cat: E2785, St. Louis, MO). IC50s were determined using 8 concentrations/compound. Cytosol was plated at 200 μg/well (100 μL) into a 96-well conical polypropylene plate (Agilent, Cat: 5042-1385, Santa Clara, CA) and mixed with 3 μL of test compound. After adding 100 μL of ^3H-methyltrienolone (PerkinElmer, Cat: NET590250UC, San Jose, CA), the plate was sealed and shaken at 300 rpm at 4° C. for 24 hours. Post incubation, 100 μL of radioligand adsorption buffer containing 10 mM Tris-HCl, pH 7.4; 1.5 mM EDTA; 1 mM DTT; 0.25% charcoal; 0.0025% dextran was added to individual well. Plate was shaken for 15 min at 4° C. followed by centrifugation at 3000 rpm for 30 min at 4° C. 150 μL of supernatant was transferred into scint-tube (PerkinElmer, Cat: 6000192) and mixed with 2 mL of Ultima Gold Cocktail (PerkinElmer, Cat: 6013329). Radioactivity was counted using a TriCarb 2910 TR scintillation counter (PerkinElmer). Inhibition of the radioactivity by test articles were calculated using the equation below: % Inhibition=(1−(Assay well-Average_LC)/(Average_HC-Average_LC))×100%. IC50 values were calculated and graphed using the model “log(inhibitor) vs. response—Variable slope” included in GraphPad Prism 5 (San Diego, CA). […] Ki=IC50/(1+[L]/Kd) c.
# [4] = biological target: Human recombinant PARP1 (Homo sapiens (Human), UniProt P09874); assay: RBC HotSpot PARP1 radioisotope-based filter binding assay; conditions: read-out: PARP1 IC50; 2.5 nM PARP1, histone H4, 10 μM 32P-NAD+
# Description: as §3
# [5] = biological target: Human recombinant PARP2 (Homo sapiens (Human), UniProt Q9UGN5); assay: RBC HotSpot PARP2 radioisotope-based filter binding assay; conditions: read-out: PARP2 IC50; 2.5 nM PARP2, histone H3, 10 μM 32P-NAD+
# Chain of Human recombinant PARP2 (Q9UGN5 whole entry): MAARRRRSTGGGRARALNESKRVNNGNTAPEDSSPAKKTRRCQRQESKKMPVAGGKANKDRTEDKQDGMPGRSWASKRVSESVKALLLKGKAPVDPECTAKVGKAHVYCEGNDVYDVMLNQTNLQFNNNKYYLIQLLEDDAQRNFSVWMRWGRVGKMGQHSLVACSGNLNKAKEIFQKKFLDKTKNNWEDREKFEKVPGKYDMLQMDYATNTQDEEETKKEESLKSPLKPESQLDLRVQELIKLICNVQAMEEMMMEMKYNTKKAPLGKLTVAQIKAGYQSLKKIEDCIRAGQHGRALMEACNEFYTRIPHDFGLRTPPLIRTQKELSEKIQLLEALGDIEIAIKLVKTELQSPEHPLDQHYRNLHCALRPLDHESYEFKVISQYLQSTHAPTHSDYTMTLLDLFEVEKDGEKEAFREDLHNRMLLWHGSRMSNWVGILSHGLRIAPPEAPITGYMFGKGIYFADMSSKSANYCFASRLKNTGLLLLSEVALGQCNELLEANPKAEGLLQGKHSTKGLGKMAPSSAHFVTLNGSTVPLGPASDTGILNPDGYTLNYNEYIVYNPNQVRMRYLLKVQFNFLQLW
# Description: as §3
# Chain of Human recombinant PARP1 (P09874 whole entry): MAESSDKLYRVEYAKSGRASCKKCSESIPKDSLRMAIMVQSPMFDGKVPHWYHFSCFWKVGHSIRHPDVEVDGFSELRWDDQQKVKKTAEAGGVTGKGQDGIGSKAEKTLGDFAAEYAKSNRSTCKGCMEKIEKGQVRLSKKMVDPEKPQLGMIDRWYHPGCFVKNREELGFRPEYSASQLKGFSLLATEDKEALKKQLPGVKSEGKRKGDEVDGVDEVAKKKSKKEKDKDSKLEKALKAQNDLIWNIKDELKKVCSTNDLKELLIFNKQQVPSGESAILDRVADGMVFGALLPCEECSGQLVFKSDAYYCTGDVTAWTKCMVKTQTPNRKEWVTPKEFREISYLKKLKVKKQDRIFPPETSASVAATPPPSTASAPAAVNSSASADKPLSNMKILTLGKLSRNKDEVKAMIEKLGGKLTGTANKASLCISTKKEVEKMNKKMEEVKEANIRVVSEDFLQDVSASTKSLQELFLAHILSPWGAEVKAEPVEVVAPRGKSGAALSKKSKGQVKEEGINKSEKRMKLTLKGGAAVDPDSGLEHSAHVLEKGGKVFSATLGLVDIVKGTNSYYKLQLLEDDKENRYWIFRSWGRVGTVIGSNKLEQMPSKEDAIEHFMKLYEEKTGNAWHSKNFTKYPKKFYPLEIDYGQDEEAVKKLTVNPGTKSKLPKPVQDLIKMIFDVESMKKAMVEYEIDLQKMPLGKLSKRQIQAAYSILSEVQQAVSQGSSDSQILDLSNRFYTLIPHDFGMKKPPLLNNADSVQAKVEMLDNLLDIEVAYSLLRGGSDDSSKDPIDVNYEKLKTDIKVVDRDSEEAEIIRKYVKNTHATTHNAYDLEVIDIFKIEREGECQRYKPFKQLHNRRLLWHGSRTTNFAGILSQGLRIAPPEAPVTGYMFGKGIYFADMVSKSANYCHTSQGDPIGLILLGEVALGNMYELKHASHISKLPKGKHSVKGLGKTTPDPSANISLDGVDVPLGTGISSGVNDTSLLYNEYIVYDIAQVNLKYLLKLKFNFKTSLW
# Chain of AR in LNCaP cytosol (P10275 whole entry T878A): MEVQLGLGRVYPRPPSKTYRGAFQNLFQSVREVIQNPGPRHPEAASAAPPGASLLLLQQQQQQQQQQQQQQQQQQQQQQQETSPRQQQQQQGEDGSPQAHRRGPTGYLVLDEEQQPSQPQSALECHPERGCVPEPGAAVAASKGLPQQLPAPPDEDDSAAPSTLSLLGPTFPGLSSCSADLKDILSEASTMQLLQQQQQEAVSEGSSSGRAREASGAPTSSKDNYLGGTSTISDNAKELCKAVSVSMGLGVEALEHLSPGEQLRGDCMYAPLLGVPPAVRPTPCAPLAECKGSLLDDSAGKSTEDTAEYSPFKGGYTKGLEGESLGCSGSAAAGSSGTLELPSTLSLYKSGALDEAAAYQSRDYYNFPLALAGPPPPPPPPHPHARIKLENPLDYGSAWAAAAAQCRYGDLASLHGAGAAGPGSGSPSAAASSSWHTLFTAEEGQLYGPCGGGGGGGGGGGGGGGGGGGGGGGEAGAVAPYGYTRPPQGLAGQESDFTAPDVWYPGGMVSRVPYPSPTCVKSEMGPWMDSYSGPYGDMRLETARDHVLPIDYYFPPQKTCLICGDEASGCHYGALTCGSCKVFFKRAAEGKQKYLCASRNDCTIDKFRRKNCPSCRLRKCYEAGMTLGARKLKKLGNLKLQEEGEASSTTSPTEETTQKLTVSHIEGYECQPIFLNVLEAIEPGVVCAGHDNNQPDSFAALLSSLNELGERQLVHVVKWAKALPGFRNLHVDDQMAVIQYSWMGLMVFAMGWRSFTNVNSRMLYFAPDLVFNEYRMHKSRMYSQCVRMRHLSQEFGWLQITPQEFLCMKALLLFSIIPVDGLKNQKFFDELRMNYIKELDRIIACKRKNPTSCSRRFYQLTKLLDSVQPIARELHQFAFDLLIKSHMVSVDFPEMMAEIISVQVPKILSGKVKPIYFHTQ
SMILES,IC50 [1] [nM],IC50 [2] [nM],IC50 [3] [nM],IC50 [4] [nM],IC50 [5] [nM]
"C[C@](O)(CS(=O)(=O)C1CCN(C(=O)c2cc(Cc3n[nH]c(=O)c4ccccc34)ccc2F)CC1)C(=O)Nc1ccc(C#N)c(C(F)(F)F)c1 [Compound 1.4, (R)—N-(4-cyano-3-(trifluoromethyl)phenyl)-3-(1-(2-fluoro-5-((4-oxo-3,4-dihydrophthalazin-1-yl)methyl)benzoyl)piperidin-4-ylsulfonyl)-2-hydroxy-2-methylpropanamide]",21000,> 30000,1030,0.6,0.2
"C[C@](O)(COC1CCN(C(=O)c2cc(Cc3n[nH]c(=O)c4ccccc34)ccc2F)CC1)C(=O)Nc1ccc(C#N)c(C(F)(F)F)c1 [Compound 1.5, (S)—N-(4-cyano-3-(trifluoromethyl)phenyl)-3-(1-(2-fluoro-5-((4-oxo-3,4-dihydrophthalazin-1-yl)methyl)benzoyl)piperidin-4-yloxy)-2-hydroxy-2-methylpropanamide]",14000,20000,6670,2,0.4
"CC1(C)C(=O)N(c2ccc(C#N)c(C(F)(F)F)c2)C(=S)N1CCNC(=O)c1cc(Cc2n[nH]c(=O)c3ccccc23)ccc1F [Compound 1.6, N-(2-(3-(4-cyano-3-(trifluoromethyl)phenyl)-5,5-dimethyl-4-oxo-2-thioxoimidazolidin-1-yl)ethyl)-2-fluoro-5-((4-oxo-3,4-dihydrophthalazin-1-yl)methyl)benzamide]",6000,10000,94,5,0.6
"CC1(C)C(=O)N(c2ccc([N+](=O)[O-])c(C(F)(F)F)c2)C(=O)N1CCNC(=O)c1cc(Cc2n[nH]c(=O)c3ccccc23)ccc1F [Compound 1.7, N-(2-(5,5-dimethyl-3-(4-nitro-3-(trifluoromethyl)phenyl)-2,4-dioxoimidazolidin-1-yl)ethyl)-2-fluoro-5-((4-oxo-3,4-dihydrophthalazin-1-yl)methyl)benzamide]",3000,10000,4620,7,1
"CC1(C)C(=O)N(c2ccc(C#N)c(C(F)(F)F)c2)C(=O)N1CCNC(=O)c1cc(Cc2n[nH]c(=O)c3ccccc23)ccc1F [Compound 1.8, N-(2-(3-(4-cyano-3-(trifluoromethyl)phenyl)-5,5-dimethyl-2,4-dioxoimidazolidin-1-yl)ethyl)-2-fluoro-5-((4-oxo-3,4-dihydrophthalazin-1-yl)methyl)benzamide]",5000,17000,503,10,1
